Among the data in US8017612B2, “Piperazine compound and use thereof as a HCV polymerase inhibitor” (priority 2006, dated 2011) are IC50 values, retold here.

As a reminder, the pIC50 is the IC50 on a negative log10 scale, so that one unit is a factor of ten.

Experiment [1] has as its target T1, HCV polymerase (NS5B) type 1a (Hepatitis C virus genotype 1a, UniProt P26664).
T1 construct: made in house; host or cells: Escherichia coli (by the 'similar method' of the 1b enzyme)
The experiment is described as follows: Assay of enzyme (HCV polymerase) inhibitory activity, type 1a enzyme. The class given is biochemical, HCV type 1a (cloned from the blood of patients). Particulars: HCV polymerase inhibitory activity IC50, 1a, type 1a enzyme. Put shortly:
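Patient-derived type 1a NS5B (C-terminal 47-aa deletion, His-tagged, E. coli-expressed) at 1.5 μg/ml was reacted with 5 μg/ml 3′UTR-containing substrate RNA, 50 μM ATP/GTP/CTP, 2 μM UTP plus [3H]UTP, pH 7.5, 25° C for 60 min. TCA-precipitated RNA radioactivity was counted; IC50 from ± compound.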

Experiment [2] concerns the target T2, HCV polymerase (NS5B) type 1b (Hepatitis C virus genotype 1b, UniProt P26663).
T2 construct: a region encoding NS5B (J Virol 1991 March, 65(3), 1105-13, 544 amino acids after deletion of 47 amino acids on the C-terminal); 6xHis (C); made in house; host or cells: Escherichia coli
The experiment is described as follows: Assay of enzyme (HCV polymerase) inhibitory activity, type 1b enzyme. The conditions noted are these: HCV polymerase inhibitory activity IC50, 1b, type 1b enzyme. The class given is biochemical, HCV BK strain (type 1b). In a few lines: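 NS5B from HCV BK strain (type 1b), C-terminal 47 aa deleted, C-terminal His6-tagged, E. coli-expressed, 0.5 μg/ml, with ~450 nt substrate RNA carrying the 3′ UTR (polyU, 3′X) at 5 μg/ml. Incubation 60 min at 25 °C with 50 μM ATP/GTP/CTP, 2 μM UTP plus [3H]UTP, pH 7.5 Tris.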

pIC50: −log10 of the molar value.

For `CC(=O)N1CCN(S(=O)(=O)c2ccc(OC(F)(F)F)cc2)[C@@H](C(=O)NCc2cnc(C)cn2)C1` [Example 719, (R)-4-acetyl-1-(4-trifluoromethoxy-benzenesulfonyl)-piperazine-2-carboxylic acid (5-methyl-pyrazin-2-ylmethyl)-amide], the pIC50 in experiment [1] and in experiment [2] was < 6.00 in each case.

As to `CCCc1ccc(CNC(=O)[C@H]2CN(c3cnc4cncnc4n3)CCN2S(=O)(=O)c2ccc(OC(F)(F)F)cc2)cn1` [Example 720, (R)-4-pteridin-7-yl-1-(4-trifluoromethoxy-benzenesulfonyl)-piperazine-2-carboxylic acid (6-propyl-pyridin-3-ylmethyl)-amide], the pIC50 in experiment [1] and in experiment [2] was > 7.00 each time.

On to `Cc1cnc(CNC(=O)[C@H]2CN(c3cnc4cncnc4n3)CCN2S(=O)(=O)c2ccc(OC(F)(F)F)cc2)cn1` [Example 721, (R)-4-pteridin-7-yl-1-(4-trifluoromethoxy-benzenesulfonyl)-piperazine-2-carboxylic acid (5-methyl-pyrazin-2-ylmethyl)-amide], for which the negative-log IC50 (pIC50) in experiment [1] and in experiment [2] was < 6.00 in each case.

Consider `CCCc1ccc(CNC(=O)[C@H]2CN(c3cnc4cncnc4n3)CCN2S(=O)(=O)c2ccc(OC(F)(F)F)cc2)cc1N` [Example 722, (R)-4-pteridin-7-yl-1-(4-trifluoromethoxy-benzenesulfonyl)-piperazine-2-carboxylic acid 3-amino-4-propyl-benzylamide], for which the pIC50 in experiment [1] is 6.00 to 7.00; in experiment [2], > 7.00.

As for `CCCc1ccc(CNC(=O)[C@H]2CN(c3cnc4cncnc4n3)CCN2S(=O)(=O)c2ccc(OC(F)(F)F)cc2)cc1O` [Example 723, (R)-4-pteridin-7-yl-1-(4-trifluoromethoxy-benzenesulfonyl)-piperazine-2-carboxylic acid 3-hydroxy-4-propyl-benzylamide], the pIC50 in experiment [1] is 6.00 to 7.00; in experiment [2], > 7.00.

`CCC(F)(F)c1ccc(CNC(=O)[C@H]2CN(c3cnc4cncnc4n3)CCN2S(=O)(=O)c2ccc(-c3ccccc3O)cc2)cc1` [Example 724, (R)-1-(2′-hydroxy-biphenyl-4-sulfonyl)-4-pteridin-7-yl-piperazine-2-carboxylic acid 4-(1,1-difluoro-propyl)-benzylamide]: the pIC50 in experiment [1] and in experiment [2] was > 7.00 each time.

For `CCC(F)(F)c1ccc(CNC(=O)[C@H]2CN(c3cnc4cncnc4n3)CCN2S(=O)(=O)c2ccc(-c3cccc(O)c3)cc2)cc1` [Example 725, (R)-1-(3′-hydroxy-biphenyl-4-sulfonyl)-4-pteridin-7-yl-piperazine-2-carboxylic acid 4-(1,1-difluoro-propyl)-benzylamide], the pIC50 in experiment [1] and in experiment [2] was > 7.00 each time.

Regarding `CCC(F)(F)c1ccc(CNC(=O)[C@H]2CN(c3cnc4cnccc4n3)CCN2S(=O)(=O)c2ccc([N+](=O)[O-])cc2)cc1` [Example 726, (R)-1-(4-nitro-benzenesulfonyl)-4-pyrido[3,4-b]pyrazin-2-yl-piperazine-2-carboxylic acid 4-(1,1-difluoro-propyl)-benzylamide], the pIC50 in experiment [1] and in experiment [2] was > 7.00 in each case.

On to `CCC(F)(F)c1ccc(CNC(=O)[C@H]2CN(c3cnc4cnccc4n3)CCN2S(=O)(=O)c2ccc(-c3ccccc3)cc2)cc1` [Example 727, (R)-1-(biphenyl-4-sulfonyl)-4-pyrido[3,4-b]pyrazin-2-yl-piperazine-2-carboxylic acid 4-(1,1-difluoro-propyl)-benzylamide], for which the negative logarithm of the IC50 (pIC50) in experiment [1] and in experiment [2] was > 7.00 in each case.

Consider `CCCc1ccc(CNC(=O)[C@H]2CN(c3ccc(C(=O)OC(C)(C)C)s3)CCN2S(=O)(=O)c2ccc(OC(F)(F)F)cc2)cc1` [Example 728, 5-[(R)-3-(4-propyl-benzylcarbamoyl)-4-(4-trifluoromethoxy-benzenesulfonyl)-piperazin-1-yl]-thiophene-2-carboxylic acid tert-butyl ester], for which the pIC50 in experiment [1] and in experiment [2] was 6.00 to 7.00 in each case.

Turning to `CCC(F)(F)c1ccc(CNC(=O)[C@H]2CN(c3cnc4cncnc4n3)CCN2S(=O)(=O)c2ccc3c(c2)CCC(CC(=O)O)CC3)cc1` (stereo partly drawn) [Example 729, (2-{(R)-2-[4-(1,1-difluoro-propyl)-benzylcarbamoyl]-4-pteridin-7-yl-piperazine-1-sulfonyl}-6,7,8,9-tetrahydro-5H-benzocyclohepten-7-yl)-acetic acid], the pIC50 in experiment [1] and in experiment [2] was > 7.00 in each case.

Take `O=C(NCc1ccc(-c2ccccn2)s1)[C@H]1CN(c2cnc3cncnc3n2)CCN1S(=O)(=O)c1ccc(OC(F)(F)F)cc1` [Example 730, (R)-4-pteridin-7-yl-1-(4-trifluoromethoxy-benzenesulfonyl)-piperazine-2-carboxylic acid (5-pyridin-2-yl-thiophen-2-ylmethyl)-amide]: the pIC50 in experiment [1] and in experiment [2] was > 7.00 throughout.

In the case of `CCC(F)(F)c1ccc(CNC(=O)[C@H]2CN(c3cnc4cncnc4n3)CCN2S(=O)(=O)c2ccc(-c3ccccc3OCC(=O)O)cc2)cc1` [Example 731, (4′-{(R)-2-[4-(1,1-difluoro-propyl)-benzylcarbamoyl]-4-pteridin-7-yl-piperazine-1-sulfonyl}-biphenyl-2-yloxy)-acetic acid], the negative logarithm of the IC50 (pIC50) in experiment [1] and in experiment [2] was > 7.00 in each case.

Regarding `CCC(F)(F)c1ccc(CNC(=O)[C@H]2CN(c3cnc4cncnc4n3)CCN2S(=O)(=O)c2ccc(-c3cccc(OCC(=O)O)c3)cc2)cc1` [Example 732, (4′-{(R)-2-[4-(1,1-difluoro-propyl)-benzylcarbamoyl]-4-pteridin-7-yl-piperazine-1-sulfonyl}-biphenyl-3-yloxy)-acetic acid], the pIC50 in experiment [1] and in experiment [2] was > 7.00 each time.

Turning to `CCC(F)(F)c1ccc(CNC(=O)[C@H]2CN(C(=O)CNc3cccnc3)CCN2S(=O)(=O)c2ccc(OC(F)(F)F)cc2)cc1` [Example 733, (R)-4-[2-(pyridin-3-ylamino)-acetyl]-1-(4-trifluoromethoxy-benzenesulfonyl)-piperazine-2-carboxylic acid 4-(1,1-difluoro-propyl)-benzylamide], the pIC50 in experiment [1] and in experiment [2] was 6.00 to 7.00 in each case.

`CCC(F)(F)c1ccc(CNC(=O)[C@H]2CN(C(=O)CNc3ccn(C)n3)CCN2S(=O)(=O)c2ccc(OC(F)(F)F)cc2)cc1` [Example 734, (R)-4-[2-(1-methyl-1H-pyrazol-3-ylamino)-acetyl]-1-(4-trifluoromethoxy-benzenesulfonyl)-piperazine-2-carboxylic acid 4-(1,1-difluoro-propyl)-benzylamide]: the negative logarithm of the IC50 (pIC50) in experiment [1] and in experiment [2] was 6.00 to 7.00 each time.

Take `CCC(F)(F)c1ccc(CNC(=O)[C@H]2CN(c3cnc4cnccc4n3)CCN2S(=O)(=O)c2ccc(C(F)(F)F)cc2)cc1` [Example 735, (R)-4-pyrido[3,4-b]pyrazin-2-yl-1-(4-trifluoromethyl-benzenesulfonyl)-piperazine-2-carboxylic acid 4-(1,1-difluoro-propyl)-benzylamide]: the pIC50 in experiment [1] and in experiment [2] was > 7.00 throughout.

On to `CCC(F)(F)c1ccc(CNC(=O)[C@H]2CN(c3cnc4cnccc4n3)CCN2S(=O)(=O)c2ccc(N(C)C)cc2)cc1` [Example 736, (R)-1-(4-dimethylamino-benzenesulfonyl)-4-pyrido[3,4-b]pyrazin-2-yl-piperazine-2-carboxylic acid 4-(1,1-difluoro-propyl)-benzylamide], for which the pIC50 in experiment [1] and in experiment [2] was > 7.00 each time.

As for `CCC(F)(F)c1ccc(CNC(=O)[C@H]2CN(c3cnc4cncnc4n3)CCN2S(=O)(=O)c2ccc(Br)s2)cc1` [Example 737, (R)-1-(5-bromo-thiophene-2-sulfonyl)-4-pteridin-7-yl-piperazine-2-carboxylic acid 4-(1,1-difluoro-propyl)-benzylamide], the pIC50 in experiment [1] and in experiment [2] was > 7.00 in each case.

With `CCC(F)(F)c1ccc(CNC(=O)[C@H]2CN(c3cnc4cncnc4n3)CCN2S(=O)(=O)c2cc3ccccc3s2)cc1` [Example 738, (R)-1-(benzo[b]thiophene-2-sulfonyl)-4-pteridin-7-yl-piperazine-2-carboxylic acid 4-(1,1-difluoro-propyl)-benzylamide], the pIC50 in experiment [1] and in experiment [2] was > 7.00 each time.

For the compound `CCC(F)(F)c1ccc(CNC(=O)[C@H]2CN(c3nc4cccnc4s3)CCN2S(=O)(=O)c2ccc(OC(F)(F)F)cc2)cc1` [Example 739, (R)-4-thiazolo[5,4-b]pyridin-2-yl-1-(4-trifluoromethoxy-benzenesulfonyl)-piperazine-2-carboxylic acid 4-(1,1-difluoro-propyl)-benzylamide], the pIC50 in experiment [1] and in experiment [2] was > 7.00 in each case.

Regarding `CCC(F)(F)c1ccc(CNC(=O)[C@H]2CN(c3ccc4cnccc4n3)CCN2S(=O)(=O)c2ccc(OC(F)(F)F)cc2)cc1` [Example 740, (R)-4-[1,6]naphthyridin-2-yl-1-(4-trifluoromethoxy-benzenesulfonyl)-piperazine-2-carboxylic acid 4-(1,1-difluoro-propyl)-benzylamide], the pIC50 in experiment [1] and in experiment [2] was > 7.00 throughout.
